Here are results for six compounds from patent US7605176B2 (Boehringer Ingelheim International GmbH, priority 2004, dated 2009).

T1 sequence (Q99705 whole entry): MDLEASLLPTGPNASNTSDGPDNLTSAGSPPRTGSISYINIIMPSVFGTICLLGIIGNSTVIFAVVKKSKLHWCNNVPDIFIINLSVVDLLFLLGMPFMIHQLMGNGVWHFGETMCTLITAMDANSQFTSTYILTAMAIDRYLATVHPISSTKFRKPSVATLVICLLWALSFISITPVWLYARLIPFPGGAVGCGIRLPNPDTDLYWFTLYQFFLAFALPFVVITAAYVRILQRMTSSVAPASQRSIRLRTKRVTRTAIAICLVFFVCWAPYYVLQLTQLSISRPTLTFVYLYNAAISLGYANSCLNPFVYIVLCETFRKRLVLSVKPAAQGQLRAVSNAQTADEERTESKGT

Test system in the first data set: not given
Test: not given
Settings: not given
In the case of `CC1CCN(CCOc2ccc(NC(=O)CC(=O)c3ccc(-c4ccccc4)cc3)cc2Cl)CC1` [Example 1, 3-biphenyl-4-yl-N-{3-chloro-4-[2-(4-methylpiperidin-1-yl)ethoxy]phenyl}-3-oxopropionamide], the melting point is 135 to 139 °C. Same read-out and setting: the same measure for `COC(=O)c1cc(NC(=O)CC(=O)c2ccc(-c3ccccc3)cc2)ccc1OCCN1CCCC1` [Example 1.9, methyl 5-(3-biphenyl-4-yl-3-oxopropionylamino)-2-(2-pyrrolidin-1-ylethoxy)benzoate]: 131 to 135 °C. In the case of `O=C(CC(=O)c1ccc(-c2ccccc2)cc1)NCCc1ccc(CN2CCCC2)cc1` [Example 5.1], the melting point lay within 121 to 125 °C. The same measure, in the same setting: the same measure for `CCN(CC)CCOc1ccc(NC(=O)CC(=O)c2ccc(-c3ccccc3)cc2)cc1Cl` [Example 7, 3-biphenyl-4-yl-N-[3-chloro-4-(2-diethylaminoethoxy)phenyl]-3-oxopropionamide]: 148 to 151 °C; for `O=C(CC(=O)c1ccc(-c2ccccc2)cc1)Nc1ccc(OCCN2CCCC2)c(C(=O)O)c1` [Example 8, 5-(3-biphenyl-4-yl-3-oxopropionylamino)-2-(2-pyrrolidin-1-ylethoxy)benzoic acid]: 236 to 240 °C.

The next data set concerns the target T1, hMCH-1R (Homo sapiens, UniProt Q99705).
T1 construct: expressed in transfected cells
The experiment in a line: MCH-1 receptor binding test (125I-MCH binding to membranes of hMCH-1R transfected CHO/Galpha16 cells). The conditions noted are these: competition with 100 pM 125I-MCH, membranes of CHO/Galpha16 cells stably transfected with hMCH-1R. The procedure: Membranes from CHO/Galpha16 cells stably transfected with human hMCH-1R are resuspended using a syringe (needle 0.6×25 mm) and diluted in test buffer (50 mM HEPES, 10 mM MgCl2, 2 mM EGTA, pH 7.00; 0.1% bovine serum albumin (protease-free), 0.021% bacitracin, 1 μg/mL aprotinin, 1 μg/mL leupeptin, and 1 μM phosphoramidone) to a concentration of 5 to 15 μg/mL.
After the incubation the reaction is filtered using a cell harvester through 0.5% PEI treated fiberglass filters (GF/B, Unifilter Packard). The membrane-bound radioactivity retained on the filter is then determined after the addition of scintillator substance (Packard Microscint 20) in a measuring device (TopCount of Packard).
The analysis of the concentration binding curve is carried out on the assumption of one receptor binding site.
For the compound `O=C(CC(=O)c1ccc(-c2ccccc2)cc1)NCCc1ccc(CN2CCCC2)cc1` [Example 5.1], the IC50 was found to be 63.7 nM. On to `CCN(CC)CCOc1ccc(NC(=O)CC(=O)c2ccc(C(F)(F)F)cc2Cl)cc1Cl` [Example 7.1], for which the IC50 came to 34.8 nM.
